This note sets out measurements from US20090233926A1, “2-BENZIMIDAZOLYL-6-MORPHOLINO-4-PIPERIDIN-4-YLPYRIMIDINE DERIVATIVES AS PI3K AND MTOR INHIBITORS FOR THE TREATMENT OF PROLIFERATIVE DISORDERS” (AstraZeneca, priority 2006, published 2009).

Each structure is given as a SMILES string.

Test [1] addresses T1, p110α Type Ia human PI3K (Homo sapiens, UniProt P42336).
T1 construct: full length DNA of each of the p110α, p110β and p110δ Type Ia human PI3K p110 isoforms; 6-His; made in house; Grp1 PH domain in E. coli
The test is described as follows: In vitro PI3K enzyme assay (AlphaScreen), Test (a). It counts as biochemical. The note with it: read-out: IC50 versus p110α Type Ia human PI3K. The text has this: The assay used AlphaScreen technology (Gray et al., Analytical Biochemistry, 2003, 313: 234-245) to determine the ability of test compounds to inhibit phosphorylation by recombinant Type I PI3K enzymes of the lipid PI(4,5)P2.
DNA fragments encoding human PI3K catalytic and regulatory subunits were isolated from cDNA libraries using standard molecular biology and PCR cloning techniques. The selected DNA fragments were used to generate baculovirus expression vectors. In particular, full length DNA of each of the p110α, p110β and p110δ Type Ia human PI3K p110 isoforms (EMBL Accession Nos. HSU79143, S67334, Y10055 for p110α, p110β and p110δ respectively) were sub-cloned into a pDEST10 vector (Invitrogen Limited, Fountain Drive, Paisley, UK). The vector is a Gateway-adapted version of Fastbac 1 containing a 6-His epitope tag. […]
Biotinylated-DiC8-PI(3,4,5)P3 (50 nM; Cell Signals Inc., Catalogue No. 107), recombinant purified GST-Grp1 PH protein (2.5 nM) and AlphaScreen Anti-GST donor and acceptor beads (100 ng; Packard Bioscience Limited, Station Road, Pangbourne, Berkshire, UK, Catalogue No. 6760603M) were added and the assay plates were left for about 5 to 20 hours at room temperature in the dark. The resultant signals arising from laser light excitation at 680 nm were read using a Packard AlphaQuest instrument. […]

The test system of test [2] is phosphorylation of Serine 473 in Akt. The test is described as follows: In vitro phospho-Ser473 Akt assay in MDA-MB-468 cells, Test (c). The class given is cell-based. The conditions noted are these: Homo sapiens, read-out: IC50, inhibition of phosphorylation of Serine 473 in Akt. The method, then: This assay determines the ability of test compounds to inhibit phosphorylation of Serine 473 in Akt as assessed using Acumen Explorer technology (TTP LabTech Limited, Royston, Herts, SG8 6EE, UK), a plate reader that can be used to rapidly quantitate features of images generated by laser-scanning.
A MDA-MB-468 human breast adenocarcinoma cell line (LGC Promochem, Teddington, Middlesex, UK, Catalogue No. HTB-132) was routinely maintained at 37° C. with 5% CO2 up to a confluency of 70-90% in DMEM containing 10% FCS and 1% L-glutamine.
For the assay, the cells were detached from the culture flask using ‘Accutase’ (Innovative Cell Technologies Inc., San Diego, Calif., USA; Catalogue No. AT104) using standard tissue culture methods and resuspended in media to give 5.5×10^4 cells per ml. Aliquots (90 μl) were seeded into each of the inner 60 wells of a black ‘Costar’ 96-well plate (Corning Inc., NY, USA; Catalogue No. 3904) to give a density of ˜5000 cells per well. Aliquots (90 μl) of culture media were placed in the outer wells to prevent edge effects. [An alternative cell handling procedure involved the maintenance of the cells in a ‘SelecT’ robotic device (The Automation Partnership, Royston, Herts SG8 5WY, UK). Cells were resuspended in media to give 5×10^4 cells per ml. Aliquots (100 μl) were seeded into the wells of a black ‘Costar’ 96-well plate.] […]

T1 sequence (P42336 whole entry, the tested form may be a part, canonical isoform): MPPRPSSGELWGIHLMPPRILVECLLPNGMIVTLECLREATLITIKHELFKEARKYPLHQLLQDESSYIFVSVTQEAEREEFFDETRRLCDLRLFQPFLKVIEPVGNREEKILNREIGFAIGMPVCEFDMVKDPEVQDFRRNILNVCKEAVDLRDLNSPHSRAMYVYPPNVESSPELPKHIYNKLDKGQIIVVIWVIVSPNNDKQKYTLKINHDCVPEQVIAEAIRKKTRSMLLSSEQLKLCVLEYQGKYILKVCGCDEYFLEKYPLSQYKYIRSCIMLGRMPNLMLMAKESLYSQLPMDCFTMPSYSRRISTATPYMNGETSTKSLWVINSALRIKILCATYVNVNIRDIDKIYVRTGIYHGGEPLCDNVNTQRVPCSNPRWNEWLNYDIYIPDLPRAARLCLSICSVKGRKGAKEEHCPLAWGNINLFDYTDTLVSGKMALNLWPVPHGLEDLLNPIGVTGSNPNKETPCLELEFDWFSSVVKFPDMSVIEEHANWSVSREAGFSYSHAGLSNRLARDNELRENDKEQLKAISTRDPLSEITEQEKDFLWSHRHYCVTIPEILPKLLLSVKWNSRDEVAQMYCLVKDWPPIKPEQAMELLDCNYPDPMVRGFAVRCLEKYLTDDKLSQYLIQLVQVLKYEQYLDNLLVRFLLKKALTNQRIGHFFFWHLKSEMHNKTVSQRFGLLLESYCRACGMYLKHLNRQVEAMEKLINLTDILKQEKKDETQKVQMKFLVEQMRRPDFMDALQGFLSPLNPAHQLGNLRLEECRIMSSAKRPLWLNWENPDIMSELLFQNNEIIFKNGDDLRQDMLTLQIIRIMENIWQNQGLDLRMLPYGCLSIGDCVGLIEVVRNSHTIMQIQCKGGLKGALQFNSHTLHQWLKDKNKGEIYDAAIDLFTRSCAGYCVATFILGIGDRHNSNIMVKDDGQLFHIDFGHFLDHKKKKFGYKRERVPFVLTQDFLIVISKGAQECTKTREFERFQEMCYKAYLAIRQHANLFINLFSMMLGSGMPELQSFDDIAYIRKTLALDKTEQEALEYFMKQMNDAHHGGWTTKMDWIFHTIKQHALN
T1 sequence (P27986 whole entry partner, the tested form may be a part, canonical isoform): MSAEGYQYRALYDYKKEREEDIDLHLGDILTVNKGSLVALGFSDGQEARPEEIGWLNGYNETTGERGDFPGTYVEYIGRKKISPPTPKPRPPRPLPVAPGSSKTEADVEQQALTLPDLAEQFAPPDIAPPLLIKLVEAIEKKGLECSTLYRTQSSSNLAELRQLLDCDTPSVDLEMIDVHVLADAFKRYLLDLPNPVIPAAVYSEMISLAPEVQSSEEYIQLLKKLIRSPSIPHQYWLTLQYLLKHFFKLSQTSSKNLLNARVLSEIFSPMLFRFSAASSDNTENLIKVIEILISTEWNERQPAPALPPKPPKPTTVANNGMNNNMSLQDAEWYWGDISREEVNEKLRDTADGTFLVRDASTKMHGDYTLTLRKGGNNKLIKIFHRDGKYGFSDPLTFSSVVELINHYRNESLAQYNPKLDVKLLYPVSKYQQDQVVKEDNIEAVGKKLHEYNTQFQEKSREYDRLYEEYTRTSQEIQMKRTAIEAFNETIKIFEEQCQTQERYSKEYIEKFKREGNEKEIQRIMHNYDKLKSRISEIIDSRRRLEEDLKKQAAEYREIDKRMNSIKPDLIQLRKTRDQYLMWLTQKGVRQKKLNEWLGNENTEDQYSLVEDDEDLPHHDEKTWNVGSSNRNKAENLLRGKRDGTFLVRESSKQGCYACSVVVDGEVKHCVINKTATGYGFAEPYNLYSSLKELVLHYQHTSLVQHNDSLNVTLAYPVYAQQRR

Regarding `NCC(=O)N1CC=C(c2cc(N3CCOCC3)nc(-n3c(C(F)F)nc4ccccc43)n2)CC1` [Example 1, 2-(2-difluoromethylbenzimidazol-1-yl)-4-(N-glycyl-1,2,3,6-tetrahydropyridin-4-yl)-6-morpholinopyrimidine], the IC50 in test [1] and in test [2] was roughly 100 nM in each case.

On to `NCC(=O)N1CCC(c2cc(N3CCOCC3)nc(-n3c(C(F)F)nc4ccccc43)n2)CC1` [Example 2, 2-(2-difluoromethylbenzimidazol-1-yl)-4-(N-glycylpiperidin-4-yl)-6-morpholinopyrimidine], for which the IC50 in test [1] is roughly 300 nM; in test [2] it was roughly 100 nM.
